Assay results published in PubChem BioAssay (NCI).
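Method: 48-hour compound exposure of cells in 96-well plates, five concentrations, linear interpolation of endpoints. TGI marks complete inhibition of growth.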

Columns and labels:
Assay in all cases: inhibition of tumour cell growth, NCI panel, 48 h
[1] = system: 786-0 renal
[2] = system: A498 renal
[3] = system: A549 NSCLC
[4] = system: ACHN renal
[5] = system: BT-549 breast
[6] = system: CAKI-1 renal
[7] = system: CCRF-CEM leukemia
[8] = system: COLO 205 colon
[9] = system: DU-145 prostate
[10] = system: EKVX NSCLC
[11] = system: HCC-2998 colon
[12] = system: HCT-116 colon
[13] = system: HCT-15 colon
[14] = system: HL-60(TB) leukemia
[15] = system: HOP-62 NSCLC
[16] = system: HOP-92 NSCLC
[17] = system: HS 578T breast
[18] = system: HT29 colon
[19] = system: IGROV1 ovarian
[20] = system: K-562 leukemia
[21] = system: KM12 colon
[22] = system: LOX IMVI melanoma
[23] = system: M14 melanoma
[24] = system: MALME-3M melanoma
[25] = system: MCF7 breast
[26] = system: MDA-MB-231 breast
[27] = system: MDA-MB-435
[28] = system: MDA-N
[29] = system: MOLT-4 leukemia
[30] = system: NCI-H226 lung
[31] = system: NCI-H23 lung
[32] = system: NCI-H460 lung
[33] = system: NCI-H522 lung
[34] = system: NCI/ADR-RES ovarian
[35] = system: OVCAR-3 ovarian
[36] = system: OVCAR-4 ovarian
[37] = system: OVCAR-5 ovarian
[38] = system: OVCAR-8 ovarian
[39] = system: PC-3 prostate
[40] = system: RPMI-8226 leukemia
[41] = system: SF-268 CNS
[42] = system: SF-295 CNS
[43] = system: SF-539 CNS
[44] = system: SK-MEL-2 melanoma
[45] = system: SK-MEL-28 melanoma
[46] = system: SK-MEL-5 melanoma
[47] = system: SK-OV-3 ovarian
[48] = system: SN12C renal
[49] = system: SNB-19 CNS
[50] = system: SNB-75 CNS
[51] = system: SR leukemia
[52] = system: SW-620 colon
[53] = system: T-47D breast
[54] = system: TK-10 renal
[55] = system: U251 CNS
[56] = system: UACC-62 melanoma
[57] = system: UO-31 renal
[58] = system: RXF 393 renal
[59] = system: UACC-257 melanoma

COc1ccc(NC(=S)N/N=C/c2cccc(C)n2)cc1
TGI [1]: > 65 µM | TGI [2]: 90 µM | TGI [3]: > 100 µM | TGI [4]: 19.5 µM | TGI [5]: > 71 µM | TGI [6]: > 79 µM | TGI [7]: > 54 µM | TGI [8]: > 39.6 µM | TGI [9]: > 67.1 µM | TGI [10]: > 100 µM | TGI [11]: > 100 µM | TGI [12]: > 100 µM | TGI [13]: > 100 µM | TGI [14]: 6.06 µM | TGI [15]: 38.4 µM | TGI [16]: > 85.5 µM | TGI [17]: > 100 µM | TGI [18]: 14.9 µM | TGI [19]: 24.1 µM | TGI [20]: > 100 µM | TGI [21]: > 100 µM | TGI [22]: 33.2 µM | TGI [23]: 11.2 µM | TGI [24]: > 100 µM | TGI [25]: > 100 µM | TGI [26]: > 100 µM | TGI [27]: > 100 µM | TGI [28]: > 100 µM | TGI [29]: > 29.3 µM | TGI [30]: 53.8 µM | TGI [31]: > 100 µM | TGI [32]: > 42.9 µM | TGI [33]: 5.73 µM | TGI [34]: > 26.6 µM | TGI [35]: > 100 µM | TGI [36]: > 100 µM | TGI [37]: > 100 µM | TGI [38]: > 35.4 µM | TGI [39]: > 100 µM | TGI [40]: 62.1 µM | TGI [41]: > 66.9 µM | TGI [42]: 40.3 µM | TGI [43]: 34.2 µM | TGI [44]: > 100 µM | TGI [45]: > 100 µM | TGI [46]: > 36.5 µM | TGI [47]: 46.2 µM | TGI [48]: > 100 µM | TGI [49]: > 100 µM | TGI [50]: 81.8 µM | TGI [51]: > 37.5 µM | TGI [52]: > 100 µM | TGI [53]: > 100 µM | TGI [54]: > 100 µM | TGI [55]: 24.6 µM | TGI [56]: 10.7 µM | TGI [57]: 18 µM

O=C(N/S(=N/S(=O)(=O)c1ccc(Br)cc1)C(Cl)(Cl)Cl)c1ccccc1 (centres undefined)
TGI [1]: > 100 µM | TGI [2]: > 100 µM | TGI [3]: > 100 µM | TGI [4]: > 100 µM | TGI [5]: > 100 µM | TGI [7]: > 100 µM | TGI [8]: > 100 µM | TGI [9]: > 100 µM | TGI [10]: > 100 µM | TGI [12]: > 100 µM | TGI [13]: > 100 µM | TGI [15]: > 100 µM | TGI [16]: 82 µM | TGI [17]: > 100 µM | TGI [18]: > 100 µM | TGI [19]: > 100 µM | TGI [20]: > 100 µM | TGI [21]: > 100 µM | TGI [22]: > 100 µM | TGI [23]: > 100 µM | TGI [24]: > 100 µM | TGI [25]: > 100 µM | TGI [26]: > 100 µM | TGI [27]: > 100 µM | TGI [28]: > 100 µM | TGI [29]: > 100 µM | TGI [30]: > 100 µM | TGI [31]: > 100 µM | TGI [32]: > 100 µM | TGI [34]: > 100 µM | TGI [35]: > 100 µM | TGI [36]: > 100 µM | TGI [37]: > 100 µM | TGI [38]: > 100 µM | TGI [39]: > 100 µM | TGI [40]: > 100 µM | TGI [58]: > 100 µM | TGI [41]: > 100 µM | TGI [42]: > 100 µM | TGI [43]: > 100 µM | TGI [44]: > 100 µM | TGI [45]: > 100 µM | TGI [46]: > 100 µM | TGI [47]: > 100 µM | TGI [48]: > 100 µM | TGI [49]: > 100 µM | TGI [50]: > 100 µM | TGI [51]: > 100 µM | TGI [52]: > 100 µM | TGI [53]: > 100 µM | TGI [54]: > 100 µM | TGI [55]: > 100 µM | TGI [59]: > 100 µM | TGI [56]: > 100 µM | TGI [57]: > 100 µM

C=C1CC(Cn2ccc(=O)[nH]c2=O)(c2ccc(OC)cc2)OC1=O (centres undefined)
TGI [1]: 25.2 µM | TGI [2]: 31.6 µM | TGI [3]: 59.2 µM | TGI [4]: 33 µM | TGI [5]: 24.6 µM | TGI [6]: 19.6 µM | TGI [7]: 10.4 µM | TGI [8]: 14.5 µM | TGI [9]: 31.3 µM | TGI [10]: 41.5 µM | TGI [11]: 17.5 µM | TGI [12]: 20 µM | TGI [13]: 31.5 µM | TGI [14]: 7.45 µM | TGI [15]: > 100 µM | TGI [16]: 4.58 µM | TGI [17]: 56.9 µM | TGI [18]: 31.2 µM | TGI [19]: 31.6 µM | TGI [20]: 16 µM | TGI [21]: 35.5 µM | TGI [22]: 27.8 µM | TGI [23]: 21.2 µM | TGI [24]: 27 µM | TGI [25]: 16 µM | TGI [26]: 33.2 µM | TGI [27]: 30.8 µM | TGI [28]: 28 µM | TGI [29]: 8.25 µM | TGI [30]: 39.3 µM | TGI [31]: 29.2 µM | TGI [32]: > 67.6 µM | TGI [33]: 4.4 µM | TGI [34]: 38.9 µM | TGI [35]: 36.1 µM | TGI [36]: 35.1 µM | TGI [37]: 32.2 µM | TGI [38]: 46.8 µM | TGI [39]: 30.6 µM | TGI [40]: 12 µM | TGI [41]: 51.1 µM | TGI [42]: > 100 µM | TGI [43]: 41.2 µM | TGI [44]: 27.1 µM | TGI [45]: 33 µM | TGI [46]: 26.8 µM | TGI [47]: > 92.9 µM | TGI [48]: 19 µM | TGI [49]: > 100 µM | TGI [51]: 10.5 µM | TGI [52]: 16.1 µM | TGI [53]: 39.8 µM | TGI [54]: 25.2 µM | TGI [55]: 53.4 µM | TGI [59]: 35.3 µM | TGI [56]: 27.9 µM | TGI [57]: 31.7 µM
